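A five-concentration, 48-hour dose response in 96-well plates underlies each endpoint, interpolated linearly between surrounding concentrations. TGI denotes the concentration required for complete inhibition of growth.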
What was measured:
Assay in all cases: inhibition of tumour cell growth, NCI panel, 48 h
MDA-MB-231 breast = test system: MDA-MB-231 breast
PC-3 prostate = test system: PC-3 prostate
M14 melanoma = test system: M14 melanoma
HCT-116 colon = test system: HCT-116 colon
LOX IMVI melanoma = test system: LOX IMVI melanoma
RPMI-8226 leukemia = test system: RPMI-8226 leukemia
SF-539 CNS = test system: SF-539 CNS
HL-60(TB) leukemia = test system: HL-60(TB) leukemia
OVCAR-5 ovarian = test system: OVCAR-5 ovarian
SF-268 CNS = test system: SF-268 CNS
SK-MEL-28 melanoma = test system: SK-MEL-28 melanoma
CAKI-1 renal = test system: CAKI-1 renal
T-47D breast = test system: T-47D breast
HCT-15 colon = test system: HCT-15 colon
HT29 colon = test system: HT29 colon
SNB-19 CNS = test system: SNB-19 CNS
SK-MEL-5 melanoma = test system: SK-MEL-5 melanoma
A549 NSCLC = test system: A549 NSCLC
COLO 205 colon = test system: COLO 205 colon
SW-620 colon = test system: SW-620 colon
SR leukemia = test system: SR leukemia
U251 CNS = test system: U251 CNS
HS 578T breast = test system: HS 578T breast
UO-31 renal = test system: UO-31 renal
EKVX NSCLC = test system: EKVX NSCLC
NCI-H226 lung = test system: NCI-H226 lung
HOP-62 NSCLC = test system: HOP-62 NSCLC
NCI/ADR-RES ovarian = test system: NCI/ADR-RES ovarian
BT-549 breast = test system: BT-549 breast
TK-10 renal = test system: TK-10 renal
UACC-257 melanoma = test system: UACC-257 melanoma
MDA-MB-435 = test system: MDA-MB-435
DU-145 prostate = test system: DU-145 prostate
OVCAR-4 ovarian = test system: OVCAR-4 ovarian
RXF 393 renal = test system: RXF 393 renal
NCI-H460 lung = test system: NCI-H460 lung
786-0 renal = test system: 786-0 renal
HCC-2998 colon = test system: HCC-2998 colon
ACHN renal = test system: ACHN renal
K-562 leukemia = test system: K-562 leukemia
MOLT-4 leukemia = test system: MOLT-4 leukemia
SK-OV-3 ovarian = test system: SK-OV-3 ovarian
OVCAR-3 ovarian = test system: OVCAR-3 ovarian
SNB-75 CNS = test system: SNB-75 CNS
MALME-3M melanoma = test system: MALME-3M melanoma
KM12 colon = test system: KM12 colon
MCF7 breast = test system: MCF7 breast
SK-MEL-2 melanoma = test system: SK-MEL-2 melanoma
HOP-92 NSCLC = test system: HOP-92 NSCLC
CCRF-CEM leukemia = test system: CCRF-CEM leukemia
OVCAR-8 ovarian = test system: OVCAR-8 ovarian
SN12C renal = test system: SN12C renal
IGROV1 ovarian = test system: IGROV1 ovarian
A498 renal = test system: A498 renal
UACC-62 melanoma = test system: UACC-62 melanoma
SF-295 CNS = test system: SF-295 CNS
NCI-H522 lung = test system: NCI-H522 lung
NCI-H23 lung = test system: NCI-H23 lung

Work on `Cn1ccnc1Sc1ccc(/C=N\NC(=O)c2cccc(F)c2)cc1[N+](=O)[O-]` yielded a TGI (MDA-MB-231 breast) greater than 100 µM, a TGI (PC-3 prostate) of 63.2 µM and a TGI (M14 melanoma) greater than 100 µM. The TGI (HCT-116 colon) was greater than 100 µM, the TGI (LOX IMVI melanoma) was greater than 100 µM and the TGI (RPMI-8226 leukemia) was greater than 100 µM. The TGI (SF-539 CNS) was 66.4 µM, the TGI (HL-60(TB) leukemia) was greater than 100 µM and the TGI (OVCAR-5 ovarian) was greater than 100 µM. The TGI (SF-268 CNS) was 53.9 µM, the TGI (SK-MEL-28 melanoma) was greater than 100 µM and the TGI (CAKI-1 renal) was greater than 100 µM. The TGI (T-47D breast) was greater than 100 µM, the TGI (HCT-15 colon) was greater than 100 µM and the TGI (HT29 colon) was greater than 100 µM. It also gave a TGI (SNB-19 CNS) of 77.1 µM, a TGI (SK-MEL-5 melanoma) greater than 100 µM and a TGI (A549 NSCLC) greater than 100 µM. It also gave a TGI (COLO 205 colon) greater than 100 µM, a TGI (SW-620 colon) greater than 100 µM and a TGI (SR leukemia) greater than 100 µM. For the same compound, the TGI (U251 CNS) was 43.7 µM, the TGI (HS 578T breast) was 70.6 µM and the TGI (UO-31 renal) was greater than 100 µM. It also gave a TGI (EKVX NSCLC) greater than 100 µM, a TGI (NCI-H226 lung) greater than 100 µM and a TGI (HOP-62 NSCLC) greater than 100 µM. For the same compound, the TGI (NCI/ADR-RES ovarian) was greater than 100 µM, the TGI (BT-549 breast) was greater than 100 µM and the TGI (TK-10 renal) was greater than 100 µM. It also gave a TGI (UACC-257 melanoma) greater than 100 µM, a TGI (MDA-MB-435) greater than 100 µM and a TGI (DU-145 prostate) greater than 100 µM. It also gave a TGI (OVCAR-4 ovarian) greater than 100 µM, a TGI (RXF 393 renal) of 94.3 µM and a TGI (NCI-H460 lung) greater than 100 µM. The TGI (786-0 renal) was greater than 100 µM, the TGI (HCC-2998 colon) was greater than 100 µM and the TGI (ACHN renal) was greater than 100 µM. The TGI (K-562 leukemia) was greater than 100 µM, the TGI (MOLT-4 leukemia) was greater than 100 µM and the TGI (SK-OV-3 ovarian) was 89.8 µM. For the same compound, the TGI (OVCAR-3 ovarian) was greater than 100 µM, the TGI (SNB-75 CNS) was 59.5 µM and the TGI (MALME-3M melanoma) was greater than 100 µM. The TGI (KM12 colon) was greater than 100 µM, the TGI (MCF7 breast) was 91.5 µM and the TGI (SK-MEL-2 melanoma) was greater than 100 µM. For the same compound, the TGI (HOP-92 NSCLC) was 63.7 µM, the TGI (CCRF-CEM leukemia) was greater than 100 µM and the TGI (OVCAR-8 ovarian) was 63.5 µM. It also gave a TGI (SN12C renal) greater than 100 µM, a TGI (IGROV1 ovarian) of 53 µM and a TGI (A498 renal) of 65.7 µM. For the same compound, the TGI (UACC-62 melanoma) was greater than 100 µM, the TGI (SF-295 CNS) was greater than 100 µM and the TGI (NCI-H522 lung) was 72.1 µM. For the same compound, the TGI (NCI-H23 lung) was greater than 100 µM.

Source: PubChem BioAssay (NCI)
